Drawing on PubChem BioAssay AID651770 (Broad Institute, 2012), this text covers AC40 and TRPM1 expression decrease for 29 compounds.

Values joined by “and” are separate entries in the source; they are usually repeats but may differ in a detail not shown here. Equal entries are not always repeated. Inconclusive results are not listed. Active and inactive are the calls of the source.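 Rule for the calls: active = fitted dose curve reaches a 40% decrease at a concentration up to twice the top valid dose; inconclusive = flat curve showing 30 to 70% expression rise, or poor fit; inactive = the rest.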

Experiment [1] concerns SK-MEL-5, TRPM1 mRNA qPCR (delta-delta-Ct), overnight. Description: suppression of MITF target gene TRPM1 mRNA, dose response, orthogonal assay for MITF inhibitor project, cell-based, SK-MEL-5, RT-qPCR, dry powder samples (AID 651770). A general note: Quantitative PCR measures a nucleic acid by following its amplification.
Assay in experiment [2]: as above
The note with it: SK-MEL-5, TRPM1 mRNA qPCR (delta-delta-Ct), overnight; at 35 µM (top of the series).

In the case of `NC1=C(NC(=O)c2ccccc2)C(=O)c2ccccc2C1=O`, the AC40 in experiment [1] is 722 nM.
On to `O=C1C(NS(=O)(=O)c2cccs2)=C(c2ccccc2)C(=O)c2ccccc21`, for which, in experiment [1], the AC40 is 1680 nM.
With `COC1=C(NS(=O)(=O)c2ccc(Br)cc2)C(=O)c2ccccc2C1=O`, the AC40 in experiment [1] was 4440 nM.
Turning to `CN1CCN(C2=C(Nc3ccc(F)cc3F)C(=O)c3ccccc3C2=O)CC1`, the AC40 in experiment [1] is 1150 nM.
The same measure, in the same setting: under `NC1=C(NS(=O)(=O)c2ccc(Br)s2)C(=O)c2ccccc2C1=O` stands 5240 nM; under `CC(C)N1CCN(C2=C(Nc3ccc(F)cc3)C(=O)c3ccccc3C2=O)CC1`, 4910 nM.
Same read-out and setting: under `O=C1C(Nc2ccccc2)=C(c2ccccc2)C(=O)c2ccccc21` stands 8180 nM; under `O=C1C(Nc2ccc(Cl)cc2)=C(N2CCCC2)C(=O)c2ccccc21`, 10300 nM.
Still for that read-out and setting: under `NC1=C(NS(=O)(=O)c2ccc(Br)cc2)C(=O)c2ccccc2C1=O` stands 4090 nM; under `NC1=CC(=O)c2ccccc2C1=O`, 3410 nM; under `COC1=C(NS(=O)(=O)c2ccccc2)C(=O)c2ccccc2C1=O`, 3980 nM.
With `COc1ccc(NC2=C(N3CCCCC3)C(=O)c3ccccc3C2=O)cc1`, in experiment [2], the TRPM1 expression decrease is 78% (inactive).
For the compound `CC(C)N1CCN(C2=C(Nc3ccc(F)cc3F)C(=O)c3ccccc3C2=O)CC1`, the AC40 in experiment [1] is 2020 nM.
On to `O=C1C=C(NS(=O)(=O)c2cccs2)C(=O)c2ccccc21`, for which, in experiment [1], the AC40 is 333 nM.
For `COC1=C(NS(=O)(=O)c2cccs2)C(=O)c2ccccc2C1=O`, the AC40 in experiment [1] is 4390 nM.
With `CN1CCN(C2=C(NS(=O)(=O)c3ccc(Br)s3)C(=O)c3ccccc3C2=O)CC1`, the AC40 in experiment [1] is 1130 nM.
Still for that read-out and setting: under `CCN1CCN(C2=C(NS(=O)(=O)c3ccc(Br)cc3)C(=O)c3ccccc3C2=O)CC1` stands 4930 nM.
Still for that read-out and setting: the result for `C=CCNC1=C(Cl)C(=O)c2ccccc2C1=O` reads 943 nM; that for `O=C(NC1=C(Cl)C(=O)c2ccccc2C1=O)c1ccccc1`, 164 nM; that for `CCN1CCN(C2=C(Nc3ccc(F)cc3F)C(=O)c3ccccc3C2=O)CC1`, 3190 nM.
Turning to `COC1=C(Nc2ccccc2)C(=O)c2ccccc2C1=O`, in experiment [1], the AC40 is 336 nM.
The same measure, in the same setting: under `O=C1C=C(Nc2ccc([N+](=O)[O-])c(C(F)(F)F)c2)C(=O)c2ccccc21` stands 302 nM.
Still for that read-out and setting: the result for `O=C1C=C(Nc2ccccc2)C(=O)c2ccccc21` reads 740 nM and 323 nM; that for `NC1=C(NS(=O)(=O)c2cccs2)C(=O)c2ccccc2C1=O`, 987 nM.
On the same count and under the same terms, the result for `NC1=C(NS(=O)(=O)c2ccccc2)C(=O)c2ccccc2C1=O` reads 1850 nM.
`O=C1C=C(NS(=O)(=O)c2ccc(Br)cc2)C(=O)c2ccccc21`: the AC40 in experiment [1] is 850 nM.
On the same count and under the same terms, the result for `O=C1C=C(NS(=O)(=O)c2ccccc2)C(=O)c2ccccc21` reads 193 nM; that for `NS(=O)(=O)c1ccc(NC2=CC(=O)c3ccccc3C2=O)cc1`, 163 nM.
Still for that read-out and setting: under `CCN1CCN(C2=C(NC(=O)c3ccccc3)C(=O)c3ccccc3C2=O)CC1` stands 1160 nM.
